The text below walks through data of PubChem BioAssay AID1963965 (Molecular Pharmacology Branch, DTP, NCI, 2024).

The assay has as its system 996289-038-R-J1-PDC spheroid viability. Kind of assay: Anticancer human tumor 996289-038-R-J1-PDC patient-derived colon adenocarcinoma cell line growth inhibition [PI3K]. The note with it: spheroids with HUVEC and MSC; for viability, T/C: stronger effect = lower value. Summed up:
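Agents were dosed from a top concentration near clinical Cmax (otherwise 10 microM) in half-log decrements, alone or combined with PI3K inhibitors. The spheroids contain tumor cells plus endothelial (HUVEC) and MSC stroma; viability is measured.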

The mark [1] stands for this setting: curve of first compound, second compound 0.00316 µM.
[2] abbreviates: curve of first compound, second compound 0.01 µM.
Where [3] appears, read: curve of first compound, second compound 0.0316 µM.
Setting [4] is: curve of first compound, second compound 0.1 µM.
Where [5] appears, read: curve of first compound, second compound 0.316 µM.
The mark [6] stands for this setting: curve of first compound, second compound 1 µM.
[7] abbreviates: second compound 0.00316 µM, first compound 0.0316 µM.
Where [8] appears, read: second compound 0.00316 µM, first compound 0.1 µM.
The mark [9] stands for this setting: second compound 0.00316 µM, first compound 0.316 µM.
Setting [10] is: second compound 0.00316 µM, first compound 1 µM.
The mark [11] stands for this setting: second compound 0.00316 µM, first compound 3.16 µM.
Setting [12] is: second compound 0.00316 µM, first compound 10 µM.
Where [13] appears, read: second compound 0.01 µM, first compound 0.0316 µM.
Setting [14] is: second compound 0.01 µM, first compound 0.1 µM.
Setting [15] is: second compound 0.01 µM, first compound 0.316 µM.
Where [16] appears, read: second compound 0.01 µM, first compound 1 µM.
Setting [17] is: second compound 0.01 µM, first compound 3.16 µM.
Where [18] appears, read: second compound 0.01 µM, first compound 10 µM.
Setting [19] is: second compound 0.0316 µM, first compound 0.0316 µM.
The mark [20] stands for this setting: second compound 0.0316 µM, first compound 0.1 µM.
[21] abbreviates: second compound 0.0316 µM, first compound 0.316 µM.
[22] abbreviates: second compound 0.0316 µM, first compound 1 µM.
The mark [23] stands for this setting: second compound 0.0316 µM, first compound 3.16 µM.
Setting [24] is: second compound 0.0316 µM, first compound 10 µM.
Setting [25] is: second compound 0.1 µM, first compound 0.0316 µM.
[26] abbreviates: second compound 0.1 µM, first compound 0.1 µM.
[27] abbreviates: second compound 0.1 µM, first compound 0.316 µM.
The mark [28] stands for this setting: second compound 0.1 µM, first compound 1 µM.
Setting [29] is: second compound 0.1 µM, first compound 3.16 µM.
The mark [30] stands for this setting: second compound 0.1 µM, first compound 10 µM.
The mark [31] stands for this setting: second compound 0.316 µM, first compound 0.0316 µM.
Setting [32] is: second compound 0.316 µM, first compound 0.1 µM.
[33] abbreviates: second compound 0.316 µM, first compound 0.316 µM.
Setting [34] is: second compound 0.316 µM, first compound 1 µM.
Setting [35] is: second compound 0.316 µM, first compound 3.16 µM.
Setting [36] is: second compound 0.316 µM, first compound 10 µM.
Where [37] appears, read: second compound 1 µM, first compound 0.0316 µM.
The mark [38] stands for this setting: second compound 1 µM, first compound 0.1 µM.
The mark [39] stands for this setting: second compound 1 µM, first compound 0.316 µM.
[40] abbreviates: second compound 1 µM, first compound 1 µM.
Where [41] appears, read: second compound 1 µM, first compound 3.16 µM.
[42] abbreviates: second compound 1 µM, first compound 10 µM.

Molecules are shown by their SMILES. Values joined by “and” are separate entries in the source; they are usually repeats but may differ in a detail not shown here. Equal values may be shown once. A value given as a limit tells only on which side of the number the result lay.
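Also: spheroids exposed to compounds for seven days before viability read.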
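For viability, T/C in this document: luminescence used as a proxy for viable cell amount; percent viability relative to DMSO vehicle control as 100%.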

In the case of `C[C@@H](NC(=O)c1ncnc(N)c1Cl)c1ncc(C(=O)Nc2cc(C(F)(F)F)c(Cl)cn2)s1`, the viability, T/C reads like this: (compound 0.0316 µM) 110% [middle of 4 runs]; (compound 0.1 µM) 103% [middle of 4 runs]; (compound 0.316 µM) 110% (2×) and 119% and 115%; (compound 1 µM) 114% [middle of 4 runs]; (compound 10 µM) 131% [middle of 4 runs]. The IC50 (curve of compound) was above 10000 nM.
For `C#Cc1c(F)ccc2cc(O)cc(-c3ncc4c(N5CC6CCC(C5)N6)nc(OCC56CCCN5CC(F)C6)nc4c3F)c12` (configuration not stated) + COc1c(OCCCN2CCOCC2)ccc2c3n(c(=NC(=O)c4cnc(N)nc4)nc12)CCN3, the IC50 is 807 nM under setting [1]; 507 nM under setting [2]; 231 nM under setting [3]; 57.4 nM under setting [4]; below 31.6 nM under setting [5]; below 31.6 nM under setting [6]. For the same compound, the viability, T/C was 91.4% under setting [7]; 71.3% under setting [8]; 60.9% under setting [9]; 47.2% under setting [10]; 39.9% under setting [11]; 35.3% under setting [12]. Moreover, the viability, T/C under setting [13] is 79.8%; the viability, T/C under setting [14] was 83.6%; the viability, T/C under setting [15] is 55.4%; the viability, T/C under setting [16] is 40.3%; the viability, T/C under setting [17] was 31.1%; the viability, T/C under setting [18] was 26.9%. Further, the viability, T/C by setting is: under setting [19], 68.7%; under setting [20], 61.3%; under setting [21], 45%; under setting [22], 33.2%; under setting [23], 25.8%; under setting [24], 19%. Further, the viability, T/C was 55.1% under setting [25]; 46% under setting [26]; 29.6% under setting [27]; 23.1% under setting [28]; 16.4% under setting [29]; 14.8% under setting [30]. Besides, the viability, T/C by setting is: under setting [31], 35.3%; under setting [32], 27.9%; under setting [33], 19.7%; under setting [34], 14%; under setting [35], 10.6%; under setting [36], 7.75%. Moreover, the viability, T/C is 15.9% under setting [37]; 16.8% under setting [38]; 11.1% under setting [39]; 7.03% under setting [40]; 5.65% under setting [41]; 4.52% under setting [42].
Regarding `CNC(=O)c1ccc(N2C(=S)N(c3ccc(C#N)c(C(F)(F)F)c3)C(=O)C2(C)C)cc1F` + CC(Nc1ccc2c(c1)OCCn1cc(N3C(=O)OCC3C(F)F)nc1-2)C(N)=O, the IC50 was above 10000 nM under setting [1]; above 10000 nM under setting [2]; above 10000 nM under setting [3]; above 10000 nM under setting [4]; above 10000 nM under setting [5]; above 10000 nM under setting [6]. Besides, the viability, T/C was 82.9% under setting [7]; 95.5% under setting [8]; 103% under setting [9]; 93.1% under setting [10]; 89% under setting [11]; 110% under setting [12]. Further, the viability, T/C was 100% under setting [13]; 88.6% under setting [14]; 100% under setting [15]; 88.2% under setting [16]; 98.2% under setting [17]; 102% under setting [18]. For the same compound, the viability, T/C under setting [19] was 98.3%; the viability, T/C under setting [20] is 81.9%; the viability, T/C under setting [21] was 80.1%; the viability, T/C under setting [22] is 87.9%; the viability, T/C under setting [23] is 92.1%; the viability, T/C under setting [24] is 86.4%. Besides, the viability, T/C is 79.4% under setting [25]; 85.4% under setting [26]; 80.5% under setting [27]; 77.8% under setting [28]; 92.9% under setting [29]; 72% under setting [30]. The viability, T/C reads like this: under setting [31], 65.1%; under setting [32], 70.8%; under setting [33], 73.3%; under setting [34], 74.2%; under setting [35], 70.3%; under setting [36], 64%. Moreover, the viability, T/C reads like this: under setting [37], 55.5%; under setting [38], 59.3%; under setting [39], 60.4%; under setting [40], 61.5%; under setting [41], 51.9%; under setting [42], 53.5%.
Turning to `CNC(=O)c1ccc(N2C(=S)N(c3ccc(C#N)c(C(F)(F)F)c3)C(=O)C2(C)C)cc1F`, the viability, T/C by setting is: (compound 0.0316 µM) 111% and 106% (2×) and 100%; (compound 0.1 µM) 97% [middle of 4 runs]; (compound 0.316 µM) 111% [middle of 4 runs]; (compound 1 µM) 113% [middle of 4 runs]. Moreover, the IC50 (curve of compound) is above 10000 nM.
As to `Cn1cnc2c(F)c(Nc3ccc(Br)cc3Cl)c(C(=O)NOCCO)cc21`, the viability, T/C by setting is: (compound 0.00949 µM) 89.3% [middle of 4 runs]; (compound 0.03 µM) 74.7% [middle of 4 runs]; (compound 0.0949 µM) 64% [middle of 4 runs]; (compound 0.3 µM) 44.4% [middle of 4 runs]; (compound 0.949 µM) 35.1% [middle of 4 runs]; (compound 3 µM) 24.5% [middle of 4 runs]. Also, under “curve of compound”, the 50% inhibitory concentration (IC50) is 229 nM [middle of 4 runs].

What is called viability, T/C is the result in the treated group divided by that in the control group, in per cent. One may read the IC50 as the concentration that inhibits the measured activity by half.
